For 73 compounds, EC50 results are on record in US10633383B2, “Compounds for the treatment, alleviation or prevention of disorders associated with Tau aggregates” (AC Immune SA, priority 2018, dated 2020).

SMILES strings stand for the structures. Where only a bound is given, the exact number is not on record here.

T1 sequence (P10636 561-689): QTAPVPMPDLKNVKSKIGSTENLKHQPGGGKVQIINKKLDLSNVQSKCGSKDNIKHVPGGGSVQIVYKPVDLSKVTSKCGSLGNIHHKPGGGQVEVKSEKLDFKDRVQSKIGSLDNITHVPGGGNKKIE

The experiment concerns the target T1, Tau K18 fragment (amino acids 244 to 372 of human Tau441) aggregates (Homo sapiens, UniProt P10636).
T1 construct: encompassing amino acids 244 to 372 of the longest isoform (2N4R) of human Tau441; host or cells: bacteria
The experiment in a line: Tau K18 disaggregation assay by ThT. The experiment is classed as biochemical. Conditions: 2 μM K18 aggregates, 30 minutes at RT, ThT fluorescence. The protocol: Tau K18 Disaggregation Assay by ThT
Compounds were dissolved in anhydrous dimethyl sulfoxide (DMSO, Sigma-Aldrich) to reach a concentration of 10 mM. K18 aggregates and serial dilutions of compounds were mixed together in PBS (volume 50 μL) to a final concentration of 2 μM of K18 aggregates and from 160 to 0.04 μM of compounds. The mixture was incubated for 30 minutes at room temperature (RT), then 40 μL of this mixture were transferred into a black 384-well plate assay (Perkin-Elmer) and mixed with 10 μL of 100 μM ThT in 250 mM glycine (both from Sigma-Aldrich) in PBS. Fluorescence (relative fluorescence units; RFU) was measured in monoplicate or duplicate on a Tecan reader (excitation: 440 nm; emission: 485 nm). Percentage of K18 disaggregation was then calculated and half maximal effective concentration (EC50) was determined using GraphPad Prism version 5 (GraphPad Software) assuming a one-binding site fitting model.
In the case of `COc1ccc2c3c([nH]c2c1)CCN(c1ccc2oc(N4CCOCC4)nc2c1)C3` [Example 133], the EC50 is less than 10 µM.
In the case of `CN(C)c1nc2cc(N3CCc4[nH]c5ccc(F)cc5c4C3)ccc2s1` [Example 11], the EC50 is less than 10 µM.
With `c1cnc2oc3c(c2c1)CN(c1ccc2oc(N4CCOCC4)nc2c1)CC3` [Example 96b], the EC50 was less than 10 µM.
`Cn1c2c(c3ccc(F)cc31)CN(c1ccc(N3CCOCC3)nc1)CC2` [Example 87] displayed an EC50 of less than 10 µM.
To `C[C@@H]1CN(c2nc3cc(N4CCc5[nH]c6cc(F)ccc6c5C4)ccc3o2)CCO1` [Example 130] belongs less than 10 µM; to `CN1CCN(c2nc3cc(N4CCc5[nH]c6cc(F)ccc6c5C4)ccc3o2)CC1` [Example 145], less than 10 µM; to `COc1cc(N2CCc3[nH]c4cc(F)ccc4c3C2)ccn1` [Example 132], less than 10 µM.
For `Fc1ccc2[nH]c3c(c2c1)CN(c1cc2sc(N4CCOCC4)nc2cn1)CC3` [Example 90] the value was less than 10 µM.
In the case of `Fc1ccc2c3c([nH]c2c1)CCN(c1ccc(N2CC4CCC(C2)O4)nn1)C3` [Example 102], the EC50 was 25 to 50 µM.
To `C[C@@H]1CN(c2nc3cc(N4CCc5[nH]c6cc(F)ccc6c5C4)ccc3o2)C[C@H](C)O1` [Example 142] belongs less than 10 µM; to `COc1ccc2nc(N3CCc4c(c5cc(F)ccc5n4C)C3)ccc2c1` [Example 93], less than 10 µM; to `COc1cncc(N2CCc3c(c4cc(F)ccc4n3C)C2)c1` [Example 94], less than 10 µM.
`Fc1ccc2c3c([nH]c2c1)CCN(c1cnc(N2CCOCC2)cn1)C3` [Example 103] had an EC50 of less than 10 µM.
For `Fc1ccc2[nH]c3c(c2c1)CN(c1ncc2nc(N4CCOCC4)sc2n1)CC3` [Example 104] the value was less than 10 µM; for `Fc1cccc2[nH]c3c(c12)CN(c1ccc(N2CCOCC2)cn1)CC3` [Example 82], 10 to 25 µM; for `CNc1nc2ccc(N3CCc4[nH]c5ccc(F)cc5c4C3)cc2o1` [Example 98], less than 10 µM.
For `COCCN(C)c1nc2cc(N3CCc4[nH]c5cc(F)ccc5c4C3)ccc2o1` [Example 116] the value was less than 10 µM; for `C[C@H]1COCCN1c1nc2cc(N3CCc4[nH]c5cc(F)ccc5c4C3)ccc2o1` [Example 129], less than 10 µM.
For `CN(C)c1nc2cc(N3CCc4[nH]c5ccc(F)cc5c4C3)ccc2o1` [Example 10] the value was less than 10 µM; for `Fc1ccc2[nH]c3c(c2c1)CN(c1cnc(N2C4CCC2COC4)cn1)CC3` [Example 105], less than 10 µM.
With `COc1ccc(N2CCc3c(c4cc(F)ccc4n3C)C2)cc1` [Example 148], the EC50 was less than 10 µM.
To `Cn1c2c(c3cc(F)ccc31)CN(c1ccc(N3CCOCC3)cc1)CC2` [Example 96] belongs less than 10 µM; to `Fc1ccc2c3c([nH]c2c1)CCN(c1ccc2nc(N4CCOCC4)ccc2c1)C3` [Example 92], less than 10 µM.
To `Fc1ccc2c3c([nH]c2c1)CCN(c1nc2ccc(N4CCOCC4)cc2o1)C3` [Example 109] belongs less than 10 µM; to `Fc1ccc2c3c([nH]c2c1)CCN(c1ccc(N2CCOCC2)cc1)C3` [Example 117], less than 10 µM; to `CCOc1ccc2[nH]c3c(c2c1)CN(c1ccc2oc(N4CCOCC4)nc2c1)CC3` [Example 136], 10 to 25 µM.
To `Cn1c2c(c3c(F)cccc31)CN(c1ccc(N3CCOCC3)nc1)CC2` [Example 83] belongs less than 10 µM.
`Cn1c2c(c3ccccc31)CN(c1ccc3oc(N4CCOCC4)nc3c1)CC2` [Example 144] yielded an EC50 of less than 10 µM.
To `Fc1ccc2[nH]c3c(c2c1)CN(c1ccc(N2CCOCC2)cn1)CC3` [Example 76] belongs less than 10 µM; to `COc1ccc(N2CCc3[nH]c4cc(F)ccc4c3C2)nc1` [Example 141], 10 to 25 µM.
To `COc1cccc(N2CCc3[nH]c4cc(F)ccc4c3C2)n1` [Example 138] belongs less than 10 µM.
For `Cn1c2c(c3cc(F)ccc31)CN(c1cncc(C(F)(F)F)c1)CC2` [Example 96d] the value was less than 10 µM.
As for `Fc1ccc2c3c([nH]c2c1)CCN(c1nc2ccc(N4CCOCC4)cc2s1)C3` [Example 108], the half-maximal effective concentration (EC50) is less than 10 µM.
Take `Fc1ccc2[nH]c3c(c2c1)CN(c1ccc2nc(N4CCOCC4)sc2n1)CC3` [Example 72]: the EC50 was less than 10 µM.
Compound `Cn1c2c(c3cc(F)ccc31)CN(c1ccc3nc(N4CCOCC4)sc3c1)CC2` [Example 1] returned an EC50 of less than 10 µM.
For `Cn1c2c(c3cc(F)ccc31)CN(c1ccc3nc(N4CCOCC4)oc3c1)CC2` [Example 15] the value was 25 to 50 µM.
For `Fc1ccc2c3c([nH]c2c1)CCN(c1cc2ccc(N4CCOCC4)nc2cn1)C3` [Example 110] the value was less than 10 µM.
To `c1ccc2c3c([nH]c2c1)CCN(c1ccc(N2CCOCC2)cn1)C3` [Example 85] belongs less than 10 µM; to `CCn1c2c(c3ccc(F)cc31)CN(c1ccc3oc(N4CCOCC4)nc3c1)CC2` [Example 146, 5-(5-ethyl-7-fluoro-3,4-dihydro-1H-pyrido[4,3-b]indol-2-yl)-2-morpholino-1,3-benzoxazole], less than 10 µM; to `Fc1cccc2[nH]c3c(c12)CN(c1ccc(N2CCOCC2)nc1)CC3` [Example 81], 10 to 25 µM.
As for `Cn1c2c(c3cc(F)ccc31)CN(c1ccc(OCCO)cc1)CC2` [Example 149], the EC50 was less than 10 µM.
For `COCCNc1nc2cc(N3CCc4[nH]c5cc(F)ccc5c4C3)ccc2o1` [Example 118], the EC50 fell in the range of 10 to 25 µM.
Compound `Cc1cccc2c3c([nH]c12)CCN(c1ccc2oc(N4CCOCC4)nc2c1)C3` [Example 137] returned an EC50 of less than 10 µM.
To `Fc1ccc2c3c([nH]c2c1)CCN(c1ccc2ccc(N4CCOCC4)nc2c1)C3` [Example 91] belongs 10 to 25 µM.
In the case of `Fc1ccc2c3c([nH]c2c1)CCN(c1nc2cc(N4CCOCC4)ccc2o1)C3` [Example 106], the EC50 was less than 10 µM.
To `C[C@@H]1COCCN1c1nc2cc(N3CCc4[nH]c5cc(F)ccc5c4C3)ccc2o1` [Example 126] belongs less than 10 µM; to `Fc1ccc2c3c([nH]c2c1)CCN(c1cnc2nc(N4CCOCC4)sc2c1)C3` [Example 73], less than 10 µM.
On to `Fc1ccc2[nH]c3c(c2c1)CN(c1cnc2nc(N4CCOCC4)sc2c1)CC3` [Example 71], for which the EC50 is less than 10 µM.
Regarding `Fc1ccc2c3c([nH]c2c1)CCN(c1ccc2nc(N4CCOCC4)sc2n1)C3` [Example 88], the EC50 is less than 10 µM.
Take `Cc1ccc(N2CCc3c(c4cc(F)ccc4n3C)C2)cc1O` [Example 147]: the EC50 was less than 10 µM.
To `Cn1c2c(c3ccc(F)cc31)CN(c1ccc(N3CCOCC3)cn1)CC2` [Example 80] belongs less than 10 µM; to `CN(C)c1nc2cc(N3CCc4c(c5cc(F)cnc5n4C)C3)ccc2o1` [Example 38], less than 10 µM.
The compound `N#Cc1ccc(N2CCc3[nH]c4cc(F)ccc4c3C2)cn1` [Example 123] registered an EC50 of less than 10 µM.
`Fc1ccc2c3c([nH]c2c1)CCN(c1ccc2nc(N4CCOCC4)ccc2n1)C3` [Example 105b] registered a concentration for a half-maximal effect (EC50) of less than 10 µM.
On to `Cn1c2c(c3ccccc31)CN(c1ccc(N3CCOCC3)nc1)CC2` [Example 119], for which the EC50 was less than 10 µM.
To `Fc1ccc2c3c([nH]c2c1)CCN(c1ccc(N2CCOCC2)nc1)C3` [Example 79] belongs less than 10 µM.
`Fc1ccc2c3c([nH]c2c1)CCN(c1ncc2nc(N4CCOCC4)sc2n1)C3` [Example 105f] came in with an EC50 of less than 10 µM.
For `Cn1c2c(c3cc(F)ccc31)CN(c1ccc(N3CCOCC3)cn1)CC2` [Example 77] the value was less than 10 µM; for `N#Cc1ccc(N2CCc3[nH]c4cc(F)ccc4c3C2)nc1` [Example 121], less than 10 µM.
In the case of `CC(C)Oc1cc(N2CCc3[nH]c4cc(F)ccc4c3C2)ccn1` [Example 139], the EC50 was in the range of 10 to 25 µM.
`COc1cc(N2CCc3[nH]c4cc(F)ccc4c3C2)ccc1F` [Example 152] returned an EC50 of less than 10 µM.
For `Fc1ccc2c3c([nH]c2c1)CCN(c1ccc2oc(N4CCOC5(CCC5)C4)nc2c1)C3` [Example 125] the value was less than 10 µM; for `COc1cc(N2CCc3c(c4cc(F)ccc4n3C)C2)ccn1` [Example 95], less than 10 µM; for `Cn1c2c(c3cc(F)ccc31)CN(c1ccc(F)cn1)CC2` [Example 96e], 25 to 50 µM.
As to `Cn1c2c(c3cccc(F)c31)CN(c1ccc3oc(N4CCOCC4)nc3c1)CC2` [Example 120], the EC50 is less than 10 µM.
To `Fc1ccc2c3c([nH]c2c1)CCN(c1ccc(N2CCOCC2)nn1)C3` [Example 101] belongs less than 10 µM; to `CC(C)(C)Nc1nc2cc(N3CCc4[nH]c5cc(F)ccc5c4C3)ccc2o1` [Example 143], less than 10 µM; to `Cn1c2c(c3ccccc31)CN(c1ccc(N3CCOCC3)cn1)CC2` [Example 84], less than 10 µM.
With `Cn1c2c(c3cc(F)ccc31)CN(c1ccc3cc(O)ccc3n1)CC2` [Example 150], the EC50 is less than 10 µM.
Compound `COc1ccnc(N2CCc3[nH]c4cc(F)ccc4c3C2)c1` [Example 140] had a concentration for a half-maximal effect (EC50) of less than 10 µM.
To `C[C@H]1CN(c2nc3cc(N4CCc5[nH]c6cc(F)ccc6c5C4)ccc3o2)CCO1` [Example 128] belongs less than 10 µM; to `Fc1ccc2c3c([nH]c2c1)CCN(c1ccc2cc(N4CCOCC4)ncc2c1)C3` [Example 122], less than 10 µM.
For `c1ccc2c3c([nH]c2c1)CCN(c1ccc(N2CCOCC2)nc1)C3` [Example 86] the value was 10 to 25 µM.

One may read the EC50 as the concentration giving half of the maximal effect. Read a low EC50 as higher potency in that assay.
